Reference: PubChem BioAssay AID1645866 (Buhrlage Lab, Dana-Farber Cancer Institute and Novartis …, 2021)
The source made the active and inactive calls.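 Rule for the calls: active = in confirmatory dose-response testing, peak deubiquitinase inhibition of 30% or more; inactive = the rest.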

target: Ubiquitin carboxyl-terminal hydrolase 28 (Homo sapiens) (UniProt Q96RU2); assay: Concentration-response biochemical assay confirming initial hits as inhibitors of ubiquitin-specific protease 28 (AID 1645866); settings: purified USP28, ubiquitin-rhodamine fluorescence, 30 min
Sequence (Q96RU2 whole entry, looked up): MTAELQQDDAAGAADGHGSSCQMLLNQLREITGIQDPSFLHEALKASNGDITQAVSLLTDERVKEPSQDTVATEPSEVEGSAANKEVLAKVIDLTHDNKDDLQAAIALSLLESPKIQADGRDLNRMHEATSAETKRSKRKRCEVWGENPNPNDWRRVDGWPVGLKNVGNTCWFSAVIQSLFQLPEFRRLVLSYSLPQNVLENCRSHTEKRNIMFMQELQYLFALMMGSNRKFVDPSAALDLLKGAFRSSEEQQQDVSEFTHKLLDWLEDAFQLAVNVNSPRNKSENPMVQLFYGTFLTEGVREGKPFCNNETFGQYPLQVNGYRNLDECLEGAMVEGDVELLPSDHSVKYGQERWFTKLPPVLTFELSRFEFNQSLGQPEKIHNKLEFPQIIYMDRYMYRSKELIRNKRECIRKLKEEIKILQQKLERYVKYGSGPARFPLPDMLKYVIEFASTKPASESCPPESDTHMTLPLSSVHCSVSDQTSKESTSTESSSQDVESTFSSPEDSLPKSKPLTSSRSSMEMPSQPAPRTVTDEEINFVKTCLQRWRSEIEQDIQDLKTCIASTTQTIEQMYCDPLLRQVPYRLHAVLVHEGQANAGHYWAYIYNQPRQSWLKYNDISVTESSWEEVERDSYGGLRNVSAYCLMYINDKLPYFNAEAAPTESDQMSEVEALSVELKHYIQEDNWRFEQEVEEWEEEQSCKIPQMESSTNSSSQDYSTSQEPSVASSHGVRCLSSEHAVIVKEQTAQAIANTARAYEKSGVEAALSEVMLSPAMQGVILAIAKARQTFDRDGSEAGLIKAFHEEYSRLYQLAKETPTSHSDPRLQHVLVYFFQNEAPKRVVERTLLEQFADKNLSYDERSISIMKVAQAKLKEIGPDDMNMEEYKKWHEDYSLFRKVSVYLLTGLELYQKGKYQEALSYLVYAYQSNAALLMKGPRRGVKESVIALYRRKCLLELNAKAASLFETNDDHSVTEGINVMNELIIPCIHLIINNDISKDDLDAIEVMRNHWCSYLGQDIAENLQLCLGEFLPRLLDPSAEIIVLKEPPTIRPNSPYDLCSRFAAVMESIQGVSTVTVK

SMILES | IC50
Cn1c(CCN2CCCC2)nc2cc(NC(=O)c3ccccc3)ccc21 | > 50 µM (inactive)
O=C1Nc2c(Cl)cc(Cl)cc2C1(O)c1sc(NC2CCCCC2)nc1-c1ccccc1 (stereo unspecified) | 24.6 µM
COc1cccc(-c2nc(C(N)=O)c3[nH]c(=O)n(-c4cccc(Cl)c4)c3n2)c1OC | > 50 µM (inactive)
COc1cc2c(cc1OC)C(COc1ccccc1OC)N(C(=O)c1ccc3ccccc3c1)CC2 (stereo unspecified) | > 50 µM (inactive)
Fc1ccccc1N1CCN(c2ncc3c(n2)CCN(Cc2ccccn2)C3)CC1 | 31 µM
COCCNC(=O)c1ccnn1-c1ccc2ccc(-c3cccnc3)cn12 | > 50 µM (inactive)
CC(=O)c1oc2nc3c(c(-c4ccc(Cl)cc4)c2c1N)CCc1ccccc1-3 | > 50 µM (inactive)
COc1cccc2c1NC(=O)C21CCN(C(=O)Nc2cccc3ccccc23)CC1 | > 50 µM (inactive)
COc1ccccc1CC(=O)Nc1nc2ccccc2[nH]1 | 37.1 µM
O=C(Nc1ccc(F)c(Cl)c1)c1ccc(N2CCCCS2(=O)=O)cc1Cl | 30.5 µM
COc1ccccc1-c1ccc(CN2[C@@H](c3ccccc3)C[C@@H]3NC(=O)CCC[C@H]32)cc1 | > 50 µM (inactive)
Cc1cc(O)c(=O)cc2c1C[C@H]1CC(C)(C)/C=C/C[C@@]3(C)Oc4cc(=O)c(O)cc(C)c4C[C@@H]3C[C@H](O)[C@]1(C)O2 | > 50 µM (inactive)
C/C1=C/C=C/[C@H](C)[C@H](O)[C@@H](C)[C@@H](O)[C@@H](C)[C@H](O)[C@H](C)[C@@H](O)[C@@H](C)/C=C(/C)C(=O)c2c(O)c(C)cc3c2C(=O)C=C(NC1=O)C3=O | > 50 µM (inactive)
Nc1ccc(F)c(NS(=O)(=O)c2ccccc2)c1 | > 50 µM (inactive)
O=C(Nc1ccccc1)c1nc2c(s1)CCN(C(=O)c1ccccc1)CC2 | > 50 µM (inactive)
N#Cc1cc2c(nc1SCC(=O)NCc1ccccc1)CCCC2 | > 50 µM (inactive)
Cc1ccc2nc(CCc3ccc(NS(=O)(=O)c4cccc(Cl)c4C)cc3)[nH]c2c1 | 27.1 µM
CCN1C(SCc2ccc(F)cc2)=NS(=O)(=O)c2ccccc21 | 26.7 µM
CCOC(=O)C1CCN(C(=O)c2ccc3c(c2)NC(=O)C2CCCN32)CC1 (stereo unspecified) | > 50 µM (inactive)
O=C(NCc1ccco1)c1ccc2c(c1)N(Cc1cccc(F)c1)C(=O)c1ccccc1S2 | > 50 µM (inactive)
COc1ccc2[nH]cc(S(=O)(=O)c3ccc(C)c(F)c3)c(=O)c2c1 | 24.1 µM
O=C(COc1ccc(Cl)cc1)NCc1nnc(SCC(=O)NCc2ccc3c(c2)OCO3)o1 | 28.4 µM
COc1ccc(NC(=O)c2nnn(-c3cccc(C)c3)c2C)cc1 | 26.2 µM
COc1cc(O)c2c(c1)C1=CC(=O)C(O)=C[C@]1(C)OC2=O | 30.1 µM
Nc1nc(OCc2ccccc2)c2[nH]c(/C=C/c3cccs3)nc2n1 | 24.9 µM

Continued by falling IC50, values first:

IC50 | SMILES
23.2 µM | COc1ccc(C2C(C(=O)Nc3ccccc3OC)=C(C)Nc3nnnn32)cc1Br (stereo unspecified)
20.1 µM | Cc1ccccc1NC(=O)Cn1c(N2CCOCC2)nc2cc(C)n(C)c2c1=O
20 µM | O=c1[nH]c2ccc(S(=O)(=O)Nc3ccc(O)c4ccccc34)cc2[nH]1
19.5 µM | Cc1cc(=O)n(CC(=O)Nc2ccccc2C)c(Nc2ccc(F)cc2)n1
19.4 µM | Cc1ccc(C(=O)Nc2nc3n(n2)C(c2ccccc2)CC(=O)N3)cc1 (stereo unspecified)
19.1 µM | Cc1ccccc1NC(=O)CNc1nc(Nc2ccccc2)nc(Nc2ccccc2)n1
17.7 µM | Cc1cccc(CNC(=O)c2ccc(-c3nnc(-c4cccc(C)c4)o3)cc2)c1
17.5 µM | COc1ccc(NC(=O)CSc2nnc(Cc3cccc4ccccc34)n2C)cc1
16.9 µM | CC(C)c1cc(NCc2ccccc2)n2nc(-c3cccnc3)nc2n1
15.9 µM | Cc1nn(-c2ccccc2)c(C)c1C(=O)OCC(=O)Nc1cccc(C#N)c1
14.6 µM | CCOc1ccc(CC(=O)Nc2ccc(-c3cn4cccnc4n3)cc2)cc1
13.9 µM | Cc1ccc(Cn2nnc(-c3ccccc3Cl)n2)cc1
12 µM | CCOc1ccc(-c2nc(C#N)c(N3CCN(C(=O)c4ccccc4C)CC3)o2)cc1
11.4 µM | CCCCCC(=O)N1c2ccccc2NC2=C(C(=O)CC(c3ccc(C(C)(C)C)cc3)C2)C1c1ccncc1 (stereo unspecified)
11.3 µM | COc1ccccc1NC(=O)Cn1cc(C(=O)c2ccc(C)cc2)c(=O)c2cc(Cl)ccc21
10.8 µM | O=S(=O)(c1cccc(F)c1)N1CCc2nc3ccccc3n2CC1
9.77 µM | Cc1cc(C)c2cc3c(nc2c1)OC(=O)N(Cc1ccco1)C3
8.66 µM | N#Cc1ccc(Cn2nnc(-c3cccc(Cl)c3)n2)cc1
7.18 µM | O=C(Nc1ccc2c(c1)OCCO2)c1ccc(N2CCCC2=O)cc1
6.94 µM | COc1ccc(NC(=O)c2[nH]nc3c2COc2ccccc2-3)c(OC)c1
5.75 µM | CSc1ccccc1NC(=O)c1ccc(-n2cccn2)nn1
4.85 µM | CCN1C(=O)COc2ccc(NC(=O)c3ccc(OCc4nonc4C)cc3)cc21
4.53 µM | CCC(=O)N1c2ccccc2NC2=C(C(=O)CC(c3ccccc3OCc3ccccc3)C2)C1c1ccccc1 (stereo unspecified)
4.26 µM | COc1cc(-c2ccno2)ccc1S(=O)(=O)Nc1ccccc1Cl
1.85 µM | CC(c1ccccc1)n1c(-c2ccc(F)cc2)nc2c(c(=O)c3ccccc3n2C)c1=O (stereo unspecified)
0.594 µM | O=C(Nc1ccc2c(c1)OCCO2)C1CCC(Cn2cnc3ccccc3c2=O)CC1 (stereo unspecified)
